In article PMC1616953 (Nucleic Acids Research, 2006):

Test system: Ssα-fuc
Experiment: enzyme kinetics, 4-nitrophenyl substrate hydrolysis
Type: biochemical, Saccharolobus solfataricus
Conditions: 65°C; KM printed as identical within error for Ssα-fuc and Ssα-fuc^B

SMILES: C[C@@H]1O[C@@H](Oc2ccc([N+](=O)[O-])cc2)[C@@H](O)[C@H](O)[C@@H]1O [4NP-Fuc, 4-nitrophenyl-α-L-fucoside]
- Km: 28.7 ± 5 µM
